Assay results from patent US20220313656A1, “NEW CLASS OF ANTIBIOTICS HAVING LOW MIC-VALUES TOWARDS DIFFERENT STRAINS OF BACTERIA” (priority 2019, published 2022).

Experiments:
[1] = tested on: Staphylococus pseudintermedius; assay: MIC, serial dilution method (CLSI); type: cell-based, Staphylococcus pseudintermedius; conditions: Staphylococcus pseudintermedius, 24 h; read-out: MIC
In short: (§1)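 Each determination was run twice. Bacteria, diluted 1:100 in Müller Hinton broth, were exposed to compound for 24 hours at 37° C without agitation, and the lowest concentration free of visible growth was recorded.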

Bacillus cereus = assay: MIC, serial dilution method (CLSI); type: cell-based; conditions: 24 h, read-out: MIC
In short: as §1

Escherichia coli E6 = assay: MIC, serial dilution method (CLSI); further: values in mg/L; type: cell-based; conditions: E. coli E6, ESBL; duplicates a/b
In short: as §1

Escherichia coli E5 = assay: MIC, serial dilution method (CLSI); further: values in mg/L; type: cell-based; conditions: E. coli E5, ESBL; duplicates a/b
In short: as §1

Escherichia coli ESBL1 = assay: MIC, serial dilution method (CLSI); further: values in mg/L; type: cell-based; conditions: E. coli ESBL1, Tetracycline resistant; duplicates a/b
In short: as §1

Salmonella enteritidis = assay: MIC, serial dilution method (CLSI); type: cell-based; conditions: Salmonella enterica, ENTERITIDIS, 24 h; read-out: MIC
In short: as §1

Escherichia coli ESBL28 = assay: MIC, serial dilution method (CLSI); further: values in mg/L; type: cell-based; conditions: E. coli ESBL28, Tetracycline resistant; duplicates a/b
In short: as §1

Escherichia coli ESBL46 = assay: MIC, serial dilution method (CLSI); further: values in mg/L; type: cell-based; conditions: E. coli ESBL46, Tetracycline resistant; duplicates a/b
In short: as §1

Escherichia coli E38 = assay: MIC, serial dilution method (CLSI); further: values in mg/L; type: cell-based; conditions: E. coli E38, ESBL; duplicates a/b
In short: as §1

Escherichia coli ESBL10 = assay: MIC, serial dilution method (CLSI); further: values in mg/L; type: cell-based; conditions: E. coli ESBL10, Tetracycline resistant; duplicates a/b
In short: as §1

Escherichia coli E24 = assay: MIC, serial dilution method (CLSI); further: values in mg/L; type: cell-based; conditions: E. coli E24, ESBL; duplicates a/b
In short: as §1

Escherichia coli ESBL37 = assay: MIC, serial dilution method (CLSI); further: values in mg/L; type: cell-based; conditions: E. coli ESBL37, Tetracycline resistant; duplicates a/b
In short: as §1

Streptococcus equi = assay: MIC, serial dilution method (CLSI); type: cell-based; conditions: 24 h, read-out: MIC
In short: as §1

Escherichia coli ESBL19 = assay: MIC, serial dilution method (CLSI); further: values in mg/L; type: cell-based; conditions: E. coli ESBL19, Tetracycline resistant; duplicates a/b
In short: as §1

Listeria monocytogenes = assay: MIC, serial dilution method (CLSI); type: cell-based; conditions: 24 h, read-out: MIC
In short: as §1

Escherichia coli E4 = assay: MIC, serial dilution method (CLSI); further: values in mg/L; type: cell-based; conditions: E. coli E4, ESBL; duplicates a/b
In short: as §1

E. faecium = assay: MIC, serial dilution method (CLSI); type: cell-based, Enterococcus faecium; conditions: Enterococcus faecium, 24 h; read-out: MIC
In short: as §1

E. coli APEC O2 = assay: MIC, serial dilution method (CLSI); type: cell-based, Escherichia coli; conditions: Escherichia coli, APECO2, 24 h; read-out: MIC
In short: as §1

E. faecalis = assay: MIC, serial dilution method (CLSI); type: cell-based, Enterococcus faecalis; conditions: Enterococcus faecalis, 24 h; read-out: MIC
In short: as §1

S. aureus CC398 = assay: MIC, serial dilution method (CLSI); type: cell-based, Staphylococcus aureus; conditions: Staphylococcus aureus, MRSA, 24 h; read-out: MIC
In short: as §1

S. aureus USA300 = assay: MIC, serial dilution method (CLSI); type: cell-based, Staphylococcus aureus; conditions: Staphylococcus aureus, USA300, 24 h; read-out: MIC
In short: as §1

[2] = Maximum Tolerated Dose (MTD) in mice; type: in vivo; conditions: for tolerated dose: mice, observed 4-6 hrs
Method: This experiment is conducted to assess in vivo toxicity of the compounds. […] The study was performed at Statens Serum Institute. The Maximum Tolerated Dose (MTD) was investigated after intravenous (iv), intraperitonalt (ip) and peroral (po) dosing ranging from 5 mg/kg to 100 mg/kg.

Campylobacter jejuni = assay: MIC and MBC determination; type: cell-based; conditions: Clinical isolate
Method: (§2) MBC-value defines the antibiotic activities by the lowest concentration of the compound needed to kill at least 99.9% of the bacteria, also known as minimum bactericidal concentration (MBC) value.
(§3) The MIC for each compound for each bacteria strain was determined by the serial dilution method following the CLSI guidelines (CLSI Clinical and Laboratory Standards Institute: Performance Standards for Antimicrobial Susceptibility Testing: […] M100-S25. Wayne, Pa., USA; 2015.) All compounds were diluted in autoclaved H2O and stored at 4° C. […] Bacterial inoculums were prepared by inoculating 9 ml of H2O with bacterial colonies from agar plate (Oxoid, Roskilde Denmark) supplemented with bovine blood to a final yield a final density of 10^8 colony forming unit (CFU)/mL using a Sensititre™ Nephelometer (Thermo Scientific, Roskilde, Denmark). These inoculums were each in diluted 1:100 in Müller Hinton (MH) broth (Sigma, Copenhagen, Denmark). From the diluted inoculums 100 μl was transferred to each well in a 96-well plate and mixed with the compound to be MIC determined. The plate was incubated for 24 hours at 37° C. (without shaking). The MIC value was determined as the lowest concentration in which no bacterial growth could be visually detected. All MIC determinations were done in duplicates. […] Since all derivatives are new, no control strains (with reference MIC values) were available.

Cutibacterium acnes = assay: MIC and MBC determination; type: cell-based; conditions: Multiresistant clinical isolate
Method: as §2, §3

[3] = tested on: Staphylococcus epidermidis; assay: MIC and MBC determination; type: cell-based; conditions: Multiresistant clinical isolate
Method: as §2, §3

[4] = tested on: Staphylococcus aureus MRSA 43484; assay: Murine superficial MRSA skin infection model, topical treatment; type: in vivo; conditions: for reduction of the bacterial loads compared to vehicle treatment: topical twice daily for 3 days, day 4, Balb/C mice; for efficacy in the MRSA skin infection model: formulations at 1% and 2%, compared to vehicle
Method: This experiment is conducted to assess the effect of topical treatment of the compounds against MRSA. Compound S43 was evaluated for efficacy against Staphylococcus aureus MRSA 43484 in an murine skin infection model.
Treatment was performed twice daily for 3 days and sampling of skin biopsies was performed the day after last treatment. Treatment with Fucidic acid was included as a positive control and treatment with vehicle was included as a negative control.
48 Balb/C female mice—18-22 g—Taconic, Denmark, Staphylococcus aureus MRSA43484, Test compound A at 1 and 2% formulations, Test compound B at 2% formulation, Fucidin, 0.9% saline (sterile, SSI), 0.9% saline/Triton-x (sterile, SSI), Sterile water (SSI), 5% Horse Blood Agar plates (SSI), MRSA Brilliance agar plates, Nurofen® Junior (20 mg/ml, Novartis), Zoletil mix/Torbugesic (SSI/QC-BIO), Dermal curette—Miltex 335710.
Approximately 1 hour before inoculation, mice were treated orally with 45 μl nurofen (20 mg ibuprofen/ml corresponding to approximately […]) as pain relief. The mice were anaesthetized with 0.15 ml s.c. of Zoletil mix. The fur was removed from a 2×3-cm area on the back of each mouse by use of an electric shaver. Next, a razor was used to remove all the hair and hereafter the outer most layer of the skin was scraped off with a dermal curette to obtain a 1 cm^2 superficial skin lesion. 10 μl inoculum containing approximately 10^7 CFU was spread on the lesion. After the applied inoculum had dried, the mouse was placed in the cage and kept in a warming cabinet until fully awake.
Topical treatment of was initiated the day after inoculation, Day 1. Mice were treated twice daily (9 a.m and 3 p.m.) for three days. A volume of 50 μl was spread on the inoculated skin area.
Colony counts in the skin lesions were determined on day 1 (start of treatment) and day 4 (the day after completed treatment). The mice were sacrificed day 1 and 4 according to Table 1. The affected skin area was removed by a pair of scissors and tweezers, and collected in a tube for Dispomixer with 1 ml saline. The skin sample was homogenized in a Dispomixer. Each sample was serial diluted in saline/Triton-x and 20-μl spots were applied on MRSA Brillince agar plates. All agar plates were incubated 20-48 hrs at 35° C.

Mutagenicity = conditions: data not shown
Method: The compound S43 was also assessed for mutagenicity.

Escherichia coli E2 = assay: MIC, serial dilution method (CLSI); further: values in mg/L; type: cell-based; conditions: E. coli E2, ESBL; duplicates a/b
Method: as §3

IPEC-J2 MDR1 cells = assay: Apical to basolateral transport across IPEC-J2 MDR1 cell monolayers; type: in vitro ADME
Method: To assess the permeability of the compounds, the apical to basolateral flux/permeability of different experimental compounds across monolayers of IPEC-J2 MDR1 cells seeded and cultured on Transwell supports was investigated.
The compounds were dissolved in ultra pure water (MilliQ) to a concentration of 1 mM and further diluted in HBSS supplemented with 0.05% BSA and 10 mM HEPES, pH 7.4 to a final concentration of 10 μM.
For transport experiments, IPEC-J2 cells were seeded onto to permeable supports (T12, Corning cci-3401) and cultured for 15-17 days. Culturemedium was changed every other day in both the apical and basolateral chamber. On the day of transport, the cells were equilibrated to ambient temperatures and the transepithelial electrical resistance (TEER) was measured across the cell monolayers. Subsequently, the cell layers were washed twice with HBSS and the TEER was measured again. The transport experiment was started by replacing the HBSS in the apical chamber with HBSS solutions of the four experimental compounds. Over a period of two hours samples of 100 μL where taken from the basolateral chamber at t=15, 30, 45, 60, 90 and 120 minutes. All samples were stored at −20° C. until analysis by means of HPLC-MS. All four compounds were tested in triplicate. After the transport study was stopped, the cell layers were washed twice with HBSS and the TEER was measured.

Compound | MIC [1] [µg/mL] | MIC (Bacillus cereus) [µg/mL] | MIC (Escherichia coli E6) | MIC (Escherichia coli E5) | MIC (Escherichia coli ESBL1) | MIC (Salmonella enteritidis) [µg/mL] | MIC (Escherichia coli ESBL28) | MIC (Escherichia coli ESBL46) | MIC (Escherichia coli E38) | MIC (Escherichia coli ESBL10) | MIC (Escherichia coli E24) | MIC (Escherichia coli ESBL37) | MIC (Streptococcus equi) [µg/mL] | MIC (Escherichia coli ESBL19) | MIC (Listeria monocytogenes) [µg/mL] | MIC (E. faecium) [µg/mL] | MIC (E. coli APEC O2) [µg/mL] | MIC (E. faecalis) [µg/mL] | MIC (S. aureus CC398) [µg/mL] | MIC (S. aureus USA300) [µg/mL] | also measured
CN(C)CCCN1c2ccccc2Sc2ccc(Cl)cc21.Cl [Compound S1, 3-(2-chloro-10H-phenothiazin-10-yl)-N,N-dimethylpropan-1-amine hydrochloride, reference compound] | 32 | 64 | 32/32 | 32/32 | 32/64 | 64 | 32/32 | 32/32 | 64/32 | 64/64 | 64/32 | 32/32 | 16 | 32/32 | 32 | 32 | 64 | 64 | 32 | 64 | MIC (Escherichia coli E4): 64/64
CC(C)=CCCC(C)CC[N+](C)(C)CCCN1c2ccccc2Sc2ccccc21.Cc1ccc(S(=O)(=O)[O-])cc1 (stereo not drawn) [Compound S43, N-(3-(10H-phenothiazin-10-yl)propyl)-N,N,3,7-tetramethyloct-6-en-1-aminium 4-methylbenzenesulfonate] | – | – | – | – | – | – | – | – | – | – | – | – | – | – | – | – | – | – | – | 2 | tolerability ([2]; mice dosed twice po with 100 mg/kg): no signs of discomfort; tolerated dose ([2]; ip dosing): up to 10 mg/kg; tolerated dose ([2]; iv dosing): up to 10 mg/kg; MBC (Campylobacter jejuni): 1 µg/mL; MIC (Campylobacter jejuni): 1 µg/mL; MBC (Cutibacterium acnes): 1 µg/mL; MIC (Cutibacterium acnes): 1 µg/mL; MBC [3]: 2 µg/mL; MIC [3]: 2 µg/mL; reduction of the bacterial loads compared to vehicle treatment ([4]; 1% formulation): 3.0 log10 CFU; reduction of the bacterial loads compared to vehicle treatment ([4]; 2% formulation): 3.7 log10 CFU; efficacy in the MRSA skin infection model ([4]; 4-methylbenzenesulfonate): significant reduction of the bacterial loads; efficacy in the MRSA skin infection model ([4]; listed as 43, 4-methylbenzenesulfonate): highly effective; mutagenic potential (Mutagenicity): did not show indications of mutagenic potential
CCCCCCCCCCCC[N+](C)(C)CCCN1c2ccccc2Sc2ccc(Cl)cc21.[Br-] [Compound S7, N-(3-(2-chloro-10H-phenothiazin-10-yl)propyl)-N,N-dimethyldodecan-1-aminium bromide] | 0.25 | 0.25 | 4/4 | 4/4 | 4/4 | 16 | 4/4 | 4/8 | 4/4 | 8/8 | 4/4 | 4/4 | 1 | 4/4 | 0.25 | 0.25 | 4 | 0.5 | 0.25 | 0.5 | MIC (Escherichia coli E2): 8/4; MIC (Escherichia coli E4): 4/4
CC[N+]1(C)CCCCC1CCN1c2ccccc2Sc2ccc(SC)cc21.[Br-] (stereo not drawn) [Compound S25, 1-ethyl-1-methyl-2-(2-(2-(methylthio)-10H-phenothiazin-10-yl)ethyl)piperidin-1-ium bromide] | 2 | 2 | – | – | – | 256 | – | – | – | – | – | – | 2 | – | 2 | 8 | 256 | 8 | 4 | 2 | permeability across IPEC-J2 MDR1 cell monolayers (IPEC-J2 MDR1 cells): low
